Reference: patent US20220380331A1, “TREATMENT OF CONDITIONS OF THE NERVOUS SYSTEM” (priority 2019, published 2022)

What was measured:
mice = conditions: 6.8-12.8 g/kg in mice continuously for 6 months
[1] = test system: locomotor function of intact rats; conditions: female, Lister Hooded, rat, in vivo, 10 days
Description: Firstly, the inventors questioned whether PNN removal throughout the CNS would affect normal sensation and motor functions. To investigate this, adult female Lister Hooded rats (n=11) were given ten days of oral PNNi treatment and subjected to routine behavioural testing.

mouse = conditions: in vivo, po; cited from earlier work
[2] = test system: locomotor function of intact rats; assay: BBB open field locomotor testing in intact rats after ten days of oral PNNi; type: in vivo, rat; conditions: short-term treatment
Protocol: HL locomotor ability was assessed at various time points throughout the acute SCI paradigm using the BBB HL locomotor scale. BBB testing was carried out using an open locomotor field (custom-built Perspex O-ring: diameter 80 cm, height 30 cm) where animals were placed for a duration of 4 minutes (FIG. 2). Each BBB test was simultaneously assessed by two individuals. The resulting scores were pooled and averaged for objectivity. BBB testing assesses HL motor function using a ranking scale from 0-21. Animals are ranked into three broad categories based on their BBB score: early phase (score of 0-7) presenting little to no limb movement; intermediate stage (score of 8-13) with bouts of uncoordinated stepping; and the late stage (score of 14-21) presenting with FL and HL coordination and stability (Basso et al., 1995). Following injury, BBBs were then carried out at 1 DPI to confirm injury and then weekly from 7 DPI. If animals also received rehabilitative training, BBBs were carried out beforehand.

PNNs in the spinal cord = assay: Short-term (10 days) PNNi administration, histology of PNN/ECM components in the CNS; type: in vivo, rat
Protocol: Animals were given an overdose of sodium pentobarbital (Pentoject; Henry Schein; 200 mg/kg; intraperitoneal injection) to deeply […] without halting cardiac function. A transcardial perfusion (Gage et al., 2012) was then performed using sodium phosphate buffer (PB; 0.12 M sodium phosphate monobasic; 0.1 M NaOH; pH 7.4) followed by 4% paraformaldehyde (PFA; in PB; pH 7.4) for tissue fixation. The brain and spinal cord were dissected out, post-fixed in PFA (4%; 4° C.) overnight and cryoprotected in 30% sucrose solution (30% v/w sucrose in PB; 4° C.) until tissue saturation. The left brain hemisphere and appropriate spinal cord segments were excised and frozen in optimum temperature medium (OCT; Leica FSC 22 Frozen Section Media; Leica Biosystems) before storage at -80° C. until sectioning. Sectioning of tissue was performed using a cryostat (Leica CM1850; Leica Biosystems) into 40 μm transverse sections for free-floating sections and collected into 48-well plates containing physiological buffer solution (PBS; 0.13 M sodium chloride, […], 0.003 M sodium phosphate monobasic; pH 7.4) to remove the OCT before being transferred to 30% sucrose solution for storage at 4° C. At room temperature (RT), sections were washed three times for 5 min each in Tris-buffered saline (TBS; 0.1 M tris base, 0.15 M NaCl; pH 7.4) to remove sucrose residue. Tissue was then blocked in 0.3% TBST (1×TBS solution and 0.3% v/v Triton X-100) and 3% normal donkey serum (NDS; v/v) for two hours. The sections were then transferred to co-incubate at 4° C. in blocking buffer (3% NDS in 0.3% TBST; pH 7.4) containing primary antibodies. Following primary antibody or lectin incubation, sections were then washed thrice using TBS (10 mins; RT). To visualise each primary antibody staining, the tissue was then co-incubated in darkness with the fluorescent-conjugated secondary antibodies (1:500; 2 hrs; RT) against the species of the primary antibodies. Tissues were then washed three times in TBS (10 mins; RT) whilst protected from light. A final wash in Tris non-saline (TNS; 0.5 M Tris, pH 7.6) was given to reduce precipitation before air-drying. Tissues were mounted on Superfrost Plus slides, air-dried and coverslipped with the mounting medium FluorSaveTM Reagent (EMD Millipore). Lectins: biotinylated Wisteria floribunda agglutinin (bio-WFA), biotinylated hyaluronan binding protein (bHABP). […] PNNi treatment was consequently investigated in vivo, with short-term administration (10 days) via either oral feeding or intraperitoneal (i.p.) injection twice daily. […] Quantification in the dorsal horn of the spinal cord illustrated that ten days of oral PNNi administration induced a partial removal of WFA-positive moieties to 71.0±7.20% of baseline ECM levels (t(3)=5.15, p=0.0142; FIG. 9P). […] As oral PNNi treatment is both non-invasive and generated sufficient effects on the neural ECM in vivo, the following PNNi dosing experiments with Lister Hooded rats used this method of administration.

spinal cord injury = assay: 8 weeks PNNi with sustained rehabilitation after spinal cord injury, hindlimb motor recovery; type: in vivo, rat; conditions: terminated 2-3 weeks before end, continued rehabilitative training
Description: FIG. […]): Limiting PNNi administration alongside sustained rehabilitation allows further hindlimb (HL) motor recovery. […] Bar graph showing the percentage of animals that were able to achieve forelimb-hindlimb (FL-HL) coordination at 9 weeks post-injury (WPI) at the end of PNNi administration, 10 and 12 WPI (B). […] (For groups, n=10 and 9 for 8 week PNNi and 8 week PNNi+T, respectively. Statistics, A, C-E: two-way mixed factorial ANOVA; significance levels: *p<0.05 **p<0.01 and ***p<0.001. A, C, D: Error bars are ±SEM.) Training was comprised of distributed practice quadrupedal interval treadmill training to provide task-specific rehabilitation. The first session commenced 7 days post injury (DPI) following locomotor behavioural tests described below. Daily training consisted of 10 minutes on the treadmill, followed by a 10 minute break before a final 10 minute session on the treadmill. Rats were trained five times a week at the maximal speed that they could maintain consecutive stepping for each 10-minute session on the treadmill. In order to enhance plasticity for effective functional recovery, we administer PNNi for 8 weeks in combination with 11 weeks of rehabilitation. Limiting PNNi administration alongside sustained rehabilitation allows further hindlimb (HL) motor but not sensory recovery (FIG. 12). […]

[3] = Nagy et al., 2015; cited from earlier work

**Q.** What does the source list for `Cc1cc(=O)oc2cc(O)ccc12` [PNNi, 4-methylumbelliferone]?
**A.** lethality and adverse signs (mice): did not show any lethality; FL correct steps [1]: 94.4±0.56%; FL missed steps [1]: 1.13±0.24%; FL slipped steps [1]: 4.35±0.54%; HL correct stepping on the horizontal ladder [1]: approximately 92.7±0.82%; HL misses on the horizontal ladder [1]: 1.92±0.41%; HL slips on the horizontal ladder [1]: 5.43±0.70%; lethal dose (mouse): 7500 mg/kg; BBB hindlimb scale score [2]: 21; WFA-positive moieties, of baseline ECM levels (PNNs in the spinal cord; dorsal horn of the spinal cord, ten days oral): 71.0±7.20%; HAPLN-1 staining, of baseline levels (PNNs in the spinal cord; dorsal horn, short-term oral): 68.3±8.09%; staining with HA binding protein (HABP), of baseline levels (PNNs in the spinal cord; dorsal horn, short-term oral): 64.0±5.84%; PNNs (ACAN staining, HABP) after 10 days oral administration in intact rats (PNNs in the spinal cord; intact rats, 10 days oral): PNNs are reduced; WFA-positive binding throughout the CNS compared to non-treated animals (PNNs in the spinal cord; ten days dosing, oral feeding or i.p. injection twice daily): sufficient in decreasing WFA-positive binding; chondroitin sulphate and hyaluronan in the spinal cord (PNNs in the spinal cord; ten-day non-invasive oral administration): down-regulates both chondroitin sulphate and hyaluronan; hindlimb (HL) motor recovery (spinal cord injury): a further HL improvement was observed; solubility in aqueous solution [3]: near insoluble
